Experimental findings from patent US11208391B2, “Polymorphs and new path to synthesize Tafamidis” (AZAD PHARMA AG, priority 2018, dated 2021) are described below.

The data set is described as follows: Pressure resistance of the crystalline form (hydraulic press, then PXRD/DSC). Type of data set: physicochemical. The following applies: pressed 3-5 seconds at 1.5 MPa, Perkin Elmer hydraulic press, 13 mm stamp, material of method 1 (pentane/heptane), compared with non-pressed form. The protocol: The diffraction measurements were performed at ambient conditions on a PANalytical X'Pert PRO θ-θ diffractometer of 240 mm of radius in reflection geometry, equipped with Cu Kα radiation and a PIXcel detector, operated at 45 kV and 40 mA. Each sample was mounted on a zero-background silicon holder and allowed to spin at 0.25 rev/s during data collection. The measurement angular range was 3.0-40.0° (2θ) with a step size of 0.013°. The scanning speed was 0.0821°/s (40.80 s/step).
Dry samples were pressed at the indicated pressures in a Perkin Elmer hydraulic press using a 13 mm stamp for a time period of 3-5 seconds.
The dried filter cake obtained by the above described method 1 was pressed for 3-5 seconds at 1.5 MPa using a Perkin Elmer hydraulic press and 13 mm tableting stamp. The resulting material was subjected to a DSC and a PXRD-experiment. The results are depicted in FIG. 13 (DSC) and FIG. 14 (PXRD). […] This feature renders this polymorph suitable for processing in the course of tableting, especially.

For the compound `CNC[C@H](O)[C@@H](O)[C@H](O)[C@H](O)CO.O=C(O)c1ccc2nc(-c3cc(Cl)cc(Cl)c3)oc2c1` [crystalline Tafamidis meglumine, 2-(3,5-dichlorophenyl)-1,3-benzoxazole-6-carboxylic acid * (2R,3R,4R,5S)-6-(methyl-amino)-hexane-1,2,3,4,5-pentol], the “PXRD diffraction pattern / structure of the crystalline form upon pressure treatment” value is recorded as “does not change upon pressure treatment”. The “PXRD diffraction pattern / structure of the crystalline form upon pressure treatment” value (listed as crystalline form) is reported as “insensitive to pressure”.
